US20250195567A1, “COMPOSITIONS FOR REMOVING MICROBIAL BIOFILM OR INHIBITING FORMATION THEREOF” (Prudentix Ltd., priority 2022, published 2025)

Columns and labels:
[1] = test system: biofilm made of Streptococcus sanguis, Actinomyces naeslundii, Porphyromonas gingivalis, and Fusobacterium nucleatum; assay: Removal of mature biofilm grown on hydroxyapatite or titanium disks, live/dead staining; format: cell-based; conditions: hydroxyapatite discs, GLDA alone at different concentrations
Description: Following assay calibration, biofilm made of Streptococcus sanguis, Actinomyces naeslundii, Porphyromonas gingivalis, and Fusobacterium nucleatum was grown on tooth surfaces (hydroxyapatite (HA) disks) or dental implants surfaces (sandblast acid-etched titanium surfaces, SLA).
The mature biofilms were washed in saline (control) or saline with PolyP (at 8% to 0.2% w/v) for 45 min at 37° C. The biofilm that remained on the disks was stained with live/dead fluorescent stains and analyzed using a florescence microscope. Results are shown as representative microscopic images (FIG. 1), and as a quantification of the florescence intensity in relative florescence units (RFU) (FIGS. 2-3).
In this experiment, the ability of the chelating agent GLDA to clear biofilm, either alone or in combination with PolyP at 0.02% and 0.5%, was tested. As described in Example 4, biofilm was grown and treated with the different solutions, and the residual biofilm was stained and quantified. The results are shown as a quantification of the florescence intensity in relative florescence units (RFU) (FIGS. 4-5).

[2] = pH of GLDA-PolyP combinations; format: physicochemical; conditions: No PolyP
Description: While acidic or basic environment in solution breakdown biofilm, it may be harmful for the human tissue at the periodontal pockets. In this experiment we thus measured the pH levels of the GLDA/PolyP combination that were tested in Example 5.

With “Tetrasodium N,N-bis(carboxymethyl)-L-glutamate [GLDA]” the “residual biofilm (fluorescence intensity)” value [1] was “dose dependent efficacy”, the pH ([2]; GLDA 0.05%) was 7 and the pH ([2]; GLDA 0.3%) was 9.6. For the same substance, the pH ([2]; GLDA 1%) was 11.5.
